Experimental data published in patent publication US11072587B2, “Administration of aurora kinase inhibitors for anti-malarial therapy” (University of Central Florida Research Foundation, Inc., priority 2017, dated 2021).

Tests used:
[1] = tested on: 3T3 Mouse fibroblast cells; test: MTS cytotoxicity assay; type: cell-based; conditions: for Selectivity Index: 3T3 EC50 versus Dd2 IC50; for EC50 / EC90: cytotoxicity, 3T3 mouse fibroblast cells
Procedure: The intraerythrocytic development of the malaria parasite diverges from the paradigm of eukaryotic cell cycle. Novelty of the Plasmodium cell cycle offers opportunities for development of therapeutics directed against essential components. […] Essential Plasmodium Aurora-related kinases (Arks) 1, 2, and 3 are homologous to Aurora A and B, Ser/Thr kinases involved in cell division. […] To discover potent and selective small molecule inhibitors of PfArks, screening was conducted of a library of optimized mammalian Aurora kinase inhibitors that have evolved from a general pharmacophore models for Ser/Thr kinases. In addition, we are also repurposing human Aurora kinase inhibitors to discover antimalarial lead compounds. Novel potent inhibitors (EC50<1 μM) were identified in cell-based screening using SYBR Green I fluorescence based assay. Selectivity of the hits against mammalian cells were determined using the MTS ((3-(4,5 dimethylthiazol-2-yl)-5-(3-carboxymethoxyphenyl)-2-(4-sulfophenyl)-2H-tetrazolium, inner salt) cell proliferation assay. Results from our studies to assess structure-activity-relationship, specificity of inhibition, and cellular effects of the compounds will be presented.
(§1) 7 hit compounds and 17 mammalian Aurora A and B inhibitors in clinical trial were screened by SYBR Green I-based fluorescence assay to determine IC50 values in chloroquine-resistant P. falciparum Dd2 and the cytotoxicity was evaluated in 3T3 Mouse fibroblast cells using MTS cytotoxicity assay. The results of the top 2 ASINEX library compounds and 3 commercially available mammalian Aurora A and B inhibitors are shown in Table 1 below with noted structures provided in FIG. 16.

[2] = tested on: chloroquine-resistant P. falciparum Dd2; test: SYBR Green I-based fluorescence assay, intraerythrocytic growth inhibition; type: cell-based, Plasmodium falciparum; conditions: for IC50 / IC90: P. falciparum Dd2, 72 h
Procedure: Ten millimolar compound stocks in DMSO were diluted by ½, ⅕, and/or 1/10 fold dilutions in ultrapure water or RPMI 1640. Varying concentrations of compound were added to culture at a 1% parasitemia and 2% hematocrit in 96-well black plates. Assay conditions maintained maximum DMSO concentrations less than 0.125% per dilution. Positive (baseline 0% growth) controls consisted of Chloroquine at 1 μM final concentration. Following 72 h incubation at 37° C. in 5% CO2, dilution plates were frozen at −80° C. for a minimum of 30 minutes. Dilution plates were allowed to thaw followed by lysis treatment and SYBR Green I incorporation. DNA quantification was determined using a fluorescence reading on a Synergy H4 multimode plate reader set at 485 nm excitation and 530 nm emission as previously reported (Roberts, Iyamu et al. 2016). EC50 was calculated from a dose response curve that was generated from a concentration range of 0-10 μM using GraphPad Prism v5.0.
Different dilutions of the compound/fraction in 1 μl of the culture medium were added to 99 μl of P. falciparum culture at a 1% parasitemia and 2% hematocrit in 96-well plates. Maximum DMSO concentration in the culture never exceeded 0.125%. Chloroquine at 1 μM was used as a positive control to determine the baseline value. Following 72 hours incubation at 37° C., the plates were frozen at −80° C. After thawing, 100 μL of lysis buffer (with SYBR Green I dye 1:10,000) was added to each well and plates were incubated at room temperature for 30 minutes prior to reading.
80 compounds were screened for their ability to inhibit the intraerythrocytic growth of chloroquine-resistant P. falciparum Dd2 using a SYBR Green I-based fluorescence assay at 1 μM.
as §1

[3] = tested on: PfArk2; test: γ-P32 ATP utilization kinase assay with MBP as substrate; type: biochemical, Plasmodium falciparum; conditions: GST-tagged PfArk2 2.5 μg, MBP 2.5 μg, autoradiogram (FIG. 17B)
Procedure: GST-tagged PfArk2 was purified using affinity chromatography (FIG. 17A). Compounds were added to a standard kinase assay at indicated concentrations against PfArk-2 (2.5 μg) in a γ-P^32 ATP utilization assay with MBP (2.5 μg) as substrate (FIG. 17B). Upper panels show Coomassie Blue-stained gel and the lower panel is the corresponding autoradiogram.

[4] = P. falciparum Dd2, compound at 1 μM, 72 h

Row | Compound | Selectivity Index [1] | EC50 [1] | EC90 [1] | IC50 [2] | IC90 [2] | % inhibition (1 μM) [2, 4] | Inhibition of PfArk2 activity [3] | IC50 ([2]; Plasmodium falciparum) | IC90 ([2]; Plasmodium falciparum) | inhibition at 1 µM ([2]; Plasmodium falciparum, P. falciparum Dd2, compound at 1 μM, 72 h)
1 | COc1cc2c(Nc3ccc(NC(=O)c4ccccc4)cc3)ncnc2cc1OCCCN1CCOCC1 [DC-0005146, ZM-447439] | 3.7 | 3.78 µM | 11.7 µM | 1.02 µM | 4.32 µM | 75% | not particularly effective in inhibiting PfArk2 activity | – | – | –
2 | CCn1cc(-c2ccnc3[nH]c(-c4cccc(CN(C)C)c4)cc23)c(-c2ccc(NC(=O)N(C)C)cc2)n1 [DC-0005154, GSK-1070916] | 13.5 | 5.97 µM | 15.9 µM | – | – | – | not particularly effective in inhibiting PfArk2 activity | 0.441 µM | 1.72 µM | 87%
3 | BI-847325 [DC-0005156] | 2.5 | 1.31 µM | > 26.7 µM | 0.529 µM | 2 µM | 93% | – | – | – | –
